Test results published in patent US11793885B2, “Substituted benzo[5,6][1,4]diazepino[1,2-a]indoles for the treatment of proliferative disorders” (priority 2017, dated 2023).

Legend:
[1] = system: Namalwa (Burkitt's lymphoma); assay: in vitro cytotoxicity assay, Namalwa cells; type: cell-based, human; settings: Homo sapiens; free cytotoxic compound
From the text: (§1) Following cell lines were used for the study: KB (cervical carcinoma, ATCC), NCI-H2110 (Non Small Cell Lung Carcinoma, ATCC), Namalwa (Burkitt's lymphoma, ATCC), Ishikawa (endometrial adenocarcinoma, ECACC), EOL-1 (Acute Myeloid Leukemia, ECACC), JEG-3 (choriocarcinoma, ATCC), JHOS-4 (ovarian adenocarcinoma, Riken Bioresource Center), OV-90 (ovarian adenocarcinoma, ATCC), SKOV-6 (ovarian adenocarcinoma, Memorial Sloan Kettering Cancer Center), Igrov-1 (ovarian adenocarcinoma, National Cancer Institute), KB-GRC1-MDR (cervical carcinoma/Pgp positive, gift from Dr. Roninson at the Ordway Research Institute) and T47D (breast epithelial cancer, ATCC). The cells were maintained and plated for the cytotox experiments in media recommended by the manufacturers. Cells were plated in the 96-well flat bottom plates at a seeding density of 800 cells per well (Ishikawa, JEG-3 or SK-OV-6), 1,000 cells per well (KB, Namalwa, EOL-1, OV-90 and Igrov-1) or 2,000 cell per well (NCI H2110, JHOS-4 and T47D). Conjugates or free drug compounds were diluted in RPMI-1640 (Life Technologies) supplemented with heat-inactivated 100 FBS (Life Technologies) and 0.1 mg/ml gentamycin (Life Technologies), and added to the plated cells. To determine specificity of cytotoxic activity of the conjugates an excess of unconjugated antibody was added to a separate set of diluted conjugates (+block samples, IC50 table). The plates were incubated at 37° C., 500 CO2 for either 4 days (JHOS-4 and T47D cells) or 5 days (KB, NCI H2110, Ishikawa, EOL-1, JEG-3, OV-90, SK-OV-6, NC-H441 and Igrov-1 cells). Alamar blue assay (Invitrogen) was used to determine viability of JHOS-4 and T47D cells, and WST-8 assay (Donjindo Molecular Technologies, Inc.) was applied for viability of KB, NCI H2110, Namalwa, Ishikawa, EOL-1, JEG-4, OV-90, SK-OV-6, NCI-H4441 and Igrov-1 cells. The assays were performed in accordance with the manufacturer's protocols. Killing curves and IC50 were generated using a sigmoidal dose-response nonlinear regression curve fit (GraphPad Software Inc.).

KB (cervical carcinoma) = assay: in vitro cytotoxicity assay, KB cells; type: cell-based, human; settings: Homo sapiens, KB, 120 h; free cytotoxic compound; 5 days
From the text: as §1

[2] = system: NCI-H2110 (Non Small Cell Lung Carcinoma); assay: in vitro cytotoxicity assay, NCI-H2110 cells; type: cell-based; settings: free cytotoxic compound, 5 days
From the text: as §1

[3] = system: EOL-1 (Acute Myeloid Leukemia); assay: in vitro cytotoxicity assay, EOL-1 cells; type: cell-based; settings: Homo sapiens, EOL1, 120 h; free cytotoxic compound; 5 days
From the text: as §1

[4] = system: Ishikawa (endometrial adenocarcinoma); assay: in vitro cytotoxicity assay, Ishikawa cells; type: cell-based; settings: Homo sapiens, Ishikawa, 120 h; free cytotoxic compound; 5 days
From the text: as §1

[5] = system: KB-GRC1-MDR (cervical carcinoma/Pgp positive); assay: cells; settings: read-out: IC50 KB-MDR
From the text: Following cell lines were used for the study: KB (cervical carcinoma, ATCC), NCI-H2110 (Non Small Cell Lung Carcinoma, ATCC), Namalwa (Burkitt's lymphoma, ATCC), Ishikawa (endometrial adenocarcinoma, ECACC), EOL-1 (Acute Myeloid Leukemia, ECACC), JEG-3 (choriocarcinoma, ATCC), JHOS-4 (ovarian adenocarcinoma, Riken Bioresource Center), OV-90 (ovarian adenocarcinoma, ATCC), SKOV-6 (ovarian adenocarcinoma, Memorial Sloan Kettering Cancer Center), Igrov-1 (ovarian adenocarcinoma, National Cancer Institute), KB-GRC1-MDR (cervical carcinoma/Pgp positive, gift from Dr. Roninson at the Ordway Research Institute) and T47D (breast epithelial cancer, ATCC). The cells were maintained and plated for the cytotox experiments in media recommended by the manufacturers. Cells were plated in the 96-well flat bottom plates at a seeding density of 800 cells per well (Ishikawa, JEG-3 or SK-OV-6), 1,000 cells per well (KB, Namalwa, EOL-1, OV-90 and Igrov-1) or 2,000 cell per well (NCI H2110, JHOS-4 and T47D). […] To determine specificity of cytotoxic activity of the conjugates an excess of unconjugated antibody was added to a separate set of diluted conjugates (+block samples, IC50 table). The plates were incubated at 37° C., […] for either 4 days (JHOS-4 and T47D cells) or 5 days (KB, NCI H2110, Ishikawa, EOL-1, JEG-3, OV-90, SK-OV-6, NC-H441 and Igrov-1 cells). Alamar blue assay (Invitrogen) was used to determine viability of JHOS-4 and T47D cells, and WST-8 assay (Donjindo Molecular Technologies, Inc.) was applied for viability of KB, NCI H2110, Namalwa, Ishikawa, EOL-1, […], OV-90, SK-OV-6, […] and Igrov-1 cells. The assays were performed in accordance with the manufacturer's protocols. Killing curves and IC50 were generated using a sigmoidal dose-response nonlinear regression curve fit (GraphPad Software Inc.).

[6] = system: T47D (breast epithelial cancer); assay: in vitro cytotoxicity assay, T47D cells; type: cell-based; settings: Homo sapiens, 96 h, read-out: IC50 T47D
Experimental: The cells were maintained and plated for the cytotox experiments in media recommended by the manufacturers. Cells were plated in the 96-well flat bottom plates at a seeding density of 800 cells per well (Ishikawa, JEG-3 or SK-OV-6), 1,000 cells per well (KB, Namalwa, EOL-1, OV-90 and Igrov-1) or 2,000 cell per well (NCI H2110, JHOS-4 and T47D). Conjugates or free drug compounds were diluted in RPMI-1640 (Life Technologies) supplemented with heat-inactivated 100 FBS (Life Technologies) and 0.1 mg/ml gentamycin (Life Technologies), and added to the plated cells. To determine specificity of cytotoxic activity of the conjugates an excess of unconjugated antibody was added to a separate set of diluted conjugates (+block samples, IC50 table). The plates were incubated at 37° C., 500 CO2 for either 4 days (JHOS-4 and T47D cells) or 5 days (KB, NCI H2110, Ishikawa, EOL-1, JEG-3, OV-90, SK-OV-6, NC-H441 and Igrov-1 cells). Alamar blue assay (Invitrogen) was used to determine viability of JHOS-4 and T47D cells, and WST-8 assay (Donjindo Molecular Technologies, Inc.) was applied for viability of KB, NCI H2110, Namalwa, Ishikawa, EOL-1, JEG-4, OV-90, SK-OV-6, NCI-H4441 and Igrov-1 cells. The assays were performed in accordance with the manufacturer's protocols. Killing curves and IC50 were generated using a sigmoidal dose-response nonlinear regression curve fit (GraphPad Software Inc.).

[7] = Phase I clinical evaluation; cited from earlier work

Compound	IC50 [1] [nM]	IC50 (KB (cervical carcinoma)) [nM]	IC50 ([2]; NCI-H2110, 120 h) [nM]	IC50 [3] [nM]	IC50 [4] [nM]	IC50 [2] [nM]	IC50 [5] [nM]	IC50 [6] [nM]	maximum tolerated dose [7] [μg/m^2]
COc1cc2c(cc1OCCCC(=O)Nc1cn(C)c(C(=O)Nc3ccc4sccc4c3)n1)N=C[C@@H]1Cc3ccccc3N1C2=O [Compound 137]	0.02	0.05	0.1	0.01	–	–	–	–	–
COC(=O)CCNC(=O)c1cc2cc(NC(=O)c3nc(NC(=O)CCCOc4cc5c(cc4OC)C(=O)N4c6ccccc6C[C@H]4C=N5)cn3C)ccc2s1 [Compound 142]	0.01	–	–	0.006	–	–	–	–	–
COc1cc2c(cc1OCCCC(=O)Nc1cn(C)c(C(=O)Nc3ccc(N)cc3)n1)N=C[C@@H]1Cc3ccccc3N1C2=O [Compound 149]	0.06	0.2	0.4	–	0.1	–	–	–	–
COc1cc2c(cc1OCCCC(=O)Nc1cn(C)c(C(=O)Nc3ccc4sc(C(=O)NCC(C)(C)SSC)cc4c3)n1)N=C[C@@H]1Cc3ccccc3N1C2=O [Compound 155]	0.03	–	–	0.009	–	–	–	–	–
COC(=O)CCNC(=O)c1nc(NC(=O)c2cc3cc(NC(=O)CCCOc4cc5c(cc4OC)C(=O)N4c6ccccc6C[C@H]4C=N5)ccc3o2)cn1C [Compound 180]	0.3	1	2	–	–	–	–	–	–
COC(=O)CCNC(=O)c1cc2cc(NC(=O)c3cc(NC(=O)CCCOc4cc5c(cc4OC)C(=O)N4c6ccccc6C[C@H]4C=N5)cn3C)ccc2o1 [Compound 185]	0.2	0.2	0.5	–	–	–	–	–	–
COC(=O)CCNC(=O)c1cc2cc(NC(=O)c3nc(NC(=O)CCCOc4cc5c(cc4OC)C(=O)N4c6ccccc6C[C@H]4C=N5)cn3C)ccc2o1 [Compound 188]	0.06	0.08	0.5	0.02	–	–	–	–	–
COc1cc2c(cc1OCCCCNC(=O)c1cc(NC(=O)c3cc(NC(=O)CCC(C)(C)SSC)cn3C)cn1C)N=C[C@@H]1Cc3ccccc3N1C2=O [Compound 192]	0.4	0.9	2	–	–	–	–	–	–
COC(=O)CCNC(=O)c1cc2cc(NC(=O)c3cc(NC(=O)CCCOc4cc5c(cc4OC)C(=O)N4c6ccccc6C[C@H]4C=N5)cn3CCCNC(=O)OC(C)(C)C)ccc2o1 [Compound 199]	> 0.5	1	5	–	–	3	–	–	–
COc1cc2c(cc1OCCCC(=O)Nc1cccc(C(=O)Nc3cc(C(=O)NCC(C)(C)SSC)n(C)c3)n1)N=C[C@@H]1Cc3ccccc3CN1C2=O [Compound 205]	0.1	0.4	0.8	–	0.3	–	4	–	–
COc1cc2c(cc1OCCCC(=O)Nc1cn(C)c(C(=O)Nc3ccc(-c4cc(C(=O)NCC(C)(C)SSC)n(C)c4)cc3)n1)N=C[C@@H]1Cc3ccccc3CN1C2=O [Compound 206]	0.001	0.006	0.01	–	0.004	–	0.1	–	–
COC(=O)c1cc2cc(NC(=O)c3cc(NC(=O)NCCOc4cc5c(cc4OC)C(=O)N4c6ccccc6C[C@H]4C=N5)cn3C)ccc2s1 [Compound 214]	–	> 5	> 5	–	–	–	–	–	–
COC(=O)c1cc2cc(NC(=O)c3cc(NCCCCOc4cc5c(cc4OC)C(=O)N4c6ccccc6C[C@H]4C=N5)cn3C)ccc2s1 [Compound 216]	–	0.5	9	–	–	–	–	2	–
C=C1C[C@H]2C=Nc3cc(OCCCOc4cc5c(cc4OC)C(=O)N4CC(=C)C[C@H]4C=N5)c(OC)cc3C(=O)N2C1 [SJG-136]	–	–	–	–	–	–	–	–	45
